Measurements from patent publication US12599620B2, “Method for the treatment of chronic fatigue syndrome using an inhibitory or cytotoxic agent against plasma cells” (Vestlandets Innovasjonsselskap AS, priority 2019, dated 2026).

Legend:
ME/CFS patients [1] = test: Bortezomib treatment of ME/CFS patients (case reports Patient 1, Patient 2); type: in vivo, human; settings: for clinical effect on ME/CFS symptoms: PEM, pain
Protocol: They received Bortezomib subcutaneously says 1, 4, 11 and 15. […] They therefore received the third course of Bortezomib as an intravenous infusion with the same dose 1.3 mg/m^2, given at days 1, 4, 8 and 11.
They had increasing energy, increased exertion and was able to perform many new tasks. […] The self-reported symptom improvement was supported by measured steps per 24 hours (Fitbit armband) and in the response period we registered more than 10.000 steps per day.
The effect lasted for approximately 7 weeks before they started experiencing gradual relapse of the ME/CFS symptoms.
[…] Fitbit armband verified […] description of improvement, with increasing steps per 24 hours from mean 1500-2000 before intervention to approximately 4000, up to 7000 on single days, after response.

[2] = test system: patients with N-Methyl-D-Aspartate (NMDA) receptor antibody-mediated encephalitis; settings: refractory to first and second line therapy; cited from earlier work
lupus nephritis in mice = settings: Bortezomib plus B-cell depletion; cited from earlier work
ME/CFS patients [3] = settings: Patient 2; open-label trial, cyclophosphamide intravenous infusions
ME/CFS patients [4] = settings: cited from earlier work; for effect on ME/CFS symptoms: patients with longstanding ME/CFS given the drug for an acquired cancer

Compound	duration of effect before gradual relapse (ME/CFS patients [1]; Patient 1)	measured steps per 24 hours (Fitbit armband) in the response period (ME/CFS patients [1]; Patient 1)	clinical effect on ME/CFS symptoms (ME/CFS patients [1]; Patient 1, cognitive disturbances, sleep problems)	side effects (ME/CFS patients [1]; Patient 1, first course 1.0 mg/m^2 subcutaneously)	side effects (ME/CFS patients [1]; Patient 1, second course 1.3 mg/m^2 subcutaneously)	side effects (ME/CFS patients [1]; Patient 1, third course 1.3 mg/m^2 intravenous infusion)	start of gradual improvement of ME/CFS symptoms, from start of bortezomib treatment (ME/CFS patients [1]; Patient 1, three courses Bortezomib 1.0-1.3 mg/m^2 sc/iv) [week]	response lasting until time after the last Bortezomib infusion (ME/CFS patients [1]; Patient 2) [weeks]	steps per 24 hours on single days after response (ME/CFS patients [1]; Patient 2)	side effects (ME/CFS patients [1]; Patient 2, after the last (sixth) course)	start of improvement of ME/CFS symptoms, after start of Bortezomib intervention (ME/CFS patients [1]; Patient 2, courses 1.0 then 1.3 mg/m^2) [weeks]	clinical effect on ME/CFS symptoms (ME/CFS patients [1]; Patient 2, energy, dizziness, cognitive function)	side effects (ME/CFS patients [1]; Patient 2, first course 1.0 mg/m^2 subcutaneously)	total duration of response before gradual relapse (ME/CFS patients [1]; Patient 2, in total 6 courses) [weeks]	steps per 24 hours (Fitbit armband) after response (ME/CFS patients [1]; Patient 2, mean 1500-2000 before intervention)	clinical outcome [2]	outcome (lupus nephritis in mice)	duration of clinical response before gradual relapse (ME/CFS patients [3])	effect on ME/CFS symptoms (ME/CFS patients [4])	share of patients with significant clinical improvements of long duration (ME/CFS patients [4]; phase II trial, 6 courses of Cyclophosphamide)
CC(C)C[C@H](NC(=O)[C@H](Cc1ccccc1)NC(=O)c1cnccn1)B(O)O [Bortezomib]	approximately 7 weeks	more than 10.000 steps per day	gradual improvement of all their ME/CFS symptoms	no bortezomib-associated side effects except an exanthema around the injection site	increasing local reaction at the injection site and with some transient fatigue and pain in the muscles	transient exanthema along the vein on the arm	10	6	up to 7000 steps per 24 hours	discomfort in their lower extremities at the legs and feet, and some constipation	7	gradual and consistent improvement of all their ME/CS symptoms	minimal skin reaction at the injection site and no other side effects	16	approximately 4000 steps per 24 hours	clinical improvement and reduction of pathologic autoantibodies	sustained plasma cell depletion and amelioration of lupus nephritis			
O=P1(N(CCCl)CCCl)NCCCO1 (stereo not drawn) [Cyclophosphamide]																		almost a year	significant symptomatic improvement	more than half the patients
O=P1(NCCCl)OCCCN1CCCl (stereo not drawn) [Ifosfamide]																			significant symptomatic improvement	
